The source of these data is ChEMBL document CHEMBL4033618, “Covalently linked kanamycin - Ciprofloxacin hybrid antibiotics as a tool to fight bacterial resistance” (Bioorg Med Chem, 2017).

In data set [1] the test system is Escherichia coli. The experiment in a line: Antibacterial activity against aminoglycosides-resistant Escherichia coli BL21 harboring pET11d encode for APH(3')-2b resistance enzyme by double microdilution method. The format is functional. On the technique in general: Dilution methods test growth across graded concentrations, often in twofold steps.
Data set [2] has as its system Escherichia coli. Nature of the data set: Ratio of MIC for aminoglycosides-resistant Escherichia coli BL21 harboring pETSACG1 encode for APH(3')-3a resistance enzyme to MIC for Escherichia coli BL21. The format is functional.
The subject of data set [3] is Escherichia coli. Nature of the data set: Inhibition of protein translation in Escherichia coli S30 cell extract using circular DNA with pBESTluc after 60 mins. The format is functional.
Data set [4] deals with Escherichia coli. The experiment in a line: Antibacterial activity against aminoglycosides-resistant Escherichia coli BL21 harboring pETSACG1 encode for APH(3')-3a resistance enzyme by double microdilution method. The format is functional.
The subject of data set [5] is Bacillus spizizenii. The experiment in a line: Resistance index, ratio of MIC for Bacillus subtilis ATCC 6633 in 15th subculture to MIC for Bacillus subtilis ATCC 6633 in first subculture. It counts as functional.
Data set [6] relates to Escherichia coli. Nature of the data set: Antibacterial activity against aminoglycosides-susceptible Escherichia coli R477-100 by double microdilution method. The format is functional.
The next data set deals with Bacillus subtilis. Nature of the data set: Antibacterial activity against aminoglycosides-susceptible Bacillus subtilis by double microdilution method. The format is functional.
A short description of data set [7]: Inhibition of Escherichia coli topoisomerase 4 using supercoiled pBR322 DNA as substrate by agarose gel electrophorosis method.
The nature of data set [8]: Inhibition of Escherichia coli DNA gyrase using relaxed pBR322 DNA as substrate by agarose gel electrophorosis method.
The subject of data set [9] is Escherichia coli. Nature of the data set: Ratio of MIC for Escherichia coli XL1 blue harboring pET9d encode for APH(3')-1a resistance enzyme to MIC for Escherichia coli XL1 blue. It counts as functional.
The subject of data set [10] is Staphylococcus epidermidis. Nature of the data set: Antibacterial activity against aminoglycosides-susceptible Staphylococcus epidermidis by double microdilution method. The format is functional.
Data set [11] concerns Escherichia coli. The experiment in a line: Resistance index, ratio of MIC for Escherichia coli ATCC 35218 in 15th subculture to MIC for Escherichia coli ATCC 35218 in first subculture. The format is functional.
Data set [12] concerns Escherichia coli. Nature of the data set: Antibacterial activity against kanamycin-resistant Escherichia coli AG100B by double microdilution method. The format is functional.
The subject of data set [13] is Escherichia coli. The experiment in a line: Antibacterial activity against Escherichia coli XL1 blue harboring pET9d encode for APH(3')-1a resistance enzyme by double microdilution method. It counts as functional.
The test system of data set [14] is Escherichia coli. Nature of the data set: Ratio of MIC for aminoglycosides-resistant Escherichia coli BL21 harboring pSF815 encode for bifunctional AAC(6')/APH(2\") resistance enzyme to MIC for Escherichia coli BL21. The format is functional.
In data set [15] the test system is Escherichia coli. Nature of the data set: Antibacterial activity against kanamycin-resistant Escherichia coli AG100A by double microdilution method. The format is functional.
The subject of data set [16] is Escherichia coli. The experiment in a line: Antibacterial activity against Escherichia coli XL1 blue by double microdilution method. The format is functional.
For data set [17], the system named is Escherichia coli. Nature of the data set: Antibacterial activity against aminoglycosides-susceptible Escherichia coli 25922 by double microdilution method. The format is functional. To be noted: ATCC 25922.
Data set [18] relates to Escherichia coli. The experiment in a line: Antibacterial activity against aminoglycosides-resistant Escherichia coli BL21 harboring pSF815 encode for bifunctional AAC(6')/APH(2\") resistance enzyme by double microdilution method. The format is functional.
Data set [19] deals with Escherichia coli. The experiment in a line: Ratio of MIC for aminoglycosides-resistant Escherichia coli BL21 harboring pET11d encode for APH(3')-2b resistance enzyme to MIC for Escherichia coli BL21. The format is functional.
For data set [20], the system named is Escherichia coli. Nature of the data set: Antibacterial activity against Escherichia coli BL21 by double microdilution method. The format is functional.
A short description of data set [21]: Acute toxicity in iv dosed mouse at pH 6.6 administered for 4 days. It counts as organism-based. The conditions noted are these: in vivo.
Data set [22] has as its system Bacillus spizizenii. Nature of the data set: Antibacterial activity against Bacillus subtilis ATCC 6633 in 15th subculture in presence of equimolar concentration of ciprofloxacin by double microdilution method. The format is functional.
For data set [23], the system named is Escherichia coli. The experiment in a line: Antibacterial activity against Escherichia coli ATCC 35218 in 15th subculture in presence of equimolar concentration of ciprofloxacin by double microdilution method. The format is functional.
For data set [24], the system named is Bacillus spizizenii. Nature of the data set: Antibacterial activity against Bacillus subtilis ATCC 6633 in 15th subculture in presence of equimolar concentration of kanamycin A by double microdilution method. The format is functional.
[25] abbreviates: Escherichia coli, 1 h, read-out: IC50.

Molecules are shown by their SMILES. In brackets after ≈: the same amount, converted by molar mass. Activity calls are given as the source filed them. The rule behind the calls is not given here. Some results are limits rather than exact numbers.

By MIC is commonly meant the lowest concentration found to suppress growth. A high value points to weaker potency. Broadly, the IC50 is the concentration that inhibits the measured activity by half. As to `NC[C@H]1O[C@H](O[C@H]2[C@H](O)[C@@H](O[C@H]3O[C@H](CO)[C@@H](O)[C@H](N)[C@H]3O)[C@H](NCc3cn(Cc4ccc(CN5CCN(c6cc7c(cc6F)c(=O)c(C(=O)O)cn7C6CC6)CC5)cc4)nn3)C[C@@H]2N)[C@H](O)[C@@H](O)[C@@H]1O`, the MIC against Escherichia coli [1] was determined as 0.1 µg/mL (≈ 0.1 µM); with Escherichia coli [4], 0.1 µg/mL (≈ 0.1 µM); in the data set on Escherichia coli [6] it was 6 µg/mL (≈ 6.01 µM); in the data set on Bacillus subtilis it was 3 µg/mL (≈ 3 µM); in [10], 3 µg/mL (≈ 3 µM); with Escherichia coli [12] it was 12 µg/mL (≈ 12 µM). Also, the MIC in the data set on Escherichia coli [13] is 3 µg/mL (≈ 3 µM); against Escherichia coli [15], 0.28 µg/mL (≈ 0.28 µM); in the data set on Escherichia coli [16] it was 3 µg/mL (≈ 3 µM); with Escherichia coli [17], 6 µg/mL (≈ 6.01 µM); against Escherichia coli [18], 0.1 µg/mL (≈ 0.1 µM); in the data set on Escherichia coli [20], 0.8 µg/mL (≈ 0.801 µM). In addition, the Ratio with Escherichia coli [2] turned out to be 1; in the data set with Bacillus spizizenii [5], 4; in the data set with Escherichia coli [9], 1; in the data set with Escherichia coli [11], 4; in the data set on Escherichia coli [14], 1; in the data set on Escherichia coli [19], 1. In addition, the concentration for half-maximal inhibition (IC50) was found to be 10.7 µM in the data set with Escherichia coli [3] (setting [25]), 7.9 µM in data set [7] (read-out: IC50) and 2.6 µM in data set [8] (read-out: IC50).

As usually defined, the LD50 is the dose expected to kill half of the subjects tested. Higher therefore signals lower toxicity. `NC[C@@H]1O[C@H](O[C@H]2[C@@H](O)[C@H](O[C@@H]3[C@@H](O)[C@H](N)C[C@H](N)[C@H]3O[C@H]3O[C@H](CN)[C@@H](O)[C@H](O)[C@H]3N)O[C@@H]2CO)[C@H](N)[C@@H](O)[C@@H]1O` [FRAMYCETIN] registered an LD50 at 96 h in data set [21] of 24 mg/kg.

On to `NC[C@H]1O[C@H](O[C@H]2[C@H](O)[C@@H](O[C@H]3O[C@H](CO)[C@@H](O)[C@H](N)[C@H]3O)[C@H](NCc3cn(CC(O)CN4CCN(c5cc6c(cc5F)c(=O)c(C(=O)O)cn6C5CC5)CC4)nn3)C[C@@H]2N)[C@H](O)[C@@H](O)[C@@H]1O` (stereo not given in full), for which the MIC is 0.3 µg/mL (≈ 0.315 µM) in the data set with Escherichia coli [1]; 0.3 µg/mL (≈ 0.315 µM) against Escherichia coli [4]; 3 µg/mL (≈ 3.15 µM) in the data set with Escherichia coli [6]; 1.5 µg/mL (≈ 1.57 µM) in the data set with Bacillus subtilis; 6 µg/mL (≈ 6.3 µM) in data set [10]; 12 µg/mL (≈ 12.6 µM) in the data set on Escherichia coli [12]. The MIC against Escherichia coli [13] amounted to 3 µg/mL (≈ 3.15 µM); against Escherichia coli [15], 0.37 µg/mL (≈ 0.388 µM); in the data set on Escherichia coli [16], 3 µg/mL (≈ 3.15 µM); in the data set with Escherichia coli [17], 1.5 µg/mL (≈ 1.57 µM); in the data set on Escherichia coli [18] it was 0.3 µg/mL (≈ 0.315 µM); in the data set with Escherichia coli [20] it was 0.09 µg/mL (≈ 0.0944 µM). Besides, the Ratio came out at 1.5 with Escherichia coli [2]; 2 in the data set with Bacillus spizizenii [5]; 1 in the data set on Escherichia coli [9]; 1.33 in the data set on Escherichia coli [11]; 1.5 with Escherichia coli [14]; 1.5 with Escherichia coli [19]. Further, the IC50 was 1.27 µM in the data set on Escherichia coli [3] (setting [25]), 19.8 µM in [7] (read-out: IC50) and 5.9 µM in data set [8] (read-out: IC50).

`NCC[C@H](O)C(=O)N[C@@H]1C[C@H](N)[C@@H](O[C@H]2O[C@H](CN)[C@@H](O)[C@H](O)[C@H]2O)[C@H](O)[C@H]1O[C@H]1O[C@H](CO)[C@@H](O)[C@H](N)[C@H]1O` [AMIKACIN] showed a 50% lethal dose (LD50) at 96 h in data set [21] of 300 mg/kg.

For `NC[C@H]1O[C@H](O[C@H]2[C@H](O)[C@@H](O[C@H]3O[C@H](CO)[C@@H](O)[C@H](N)[C@H]3O)[C@H](N)C[C@@H]2N)[C@H](O)[C@@H](O)[C@@H]1O` [KANAMYCIN], the MIC is above 384 µg/mL with Escherichia coli [1]; above 384 µg/mL against Escherichia coli [4]; 12 µg/mL (≈ 24.8 µM) in the data set on Escherichia coli [6]; 1.5 µg/mL (≈ 3.1 µM) in the data set on Bacillus subtilis; 1.5 µg/mL (≈ 3.1 µM) in data set [10]; 384 µg/mL (≈ 793 µM) in the data set with Escherichia coli [12]. For the same compound, the MIC in the data set with Escherichia coli [13] was above 384 µg/mL; in the data set on Escherichia coli [15] it was 96 µg/mL (≈ 198 µM); with Escherichia coli [16], 3 µg/mL (≈ 6.19 µM); in the data set with Escherichia coli [17], 48 µg/mL (≈ 99.1 µM); in the data set with Escherichia coli [18], above 384 µg/mL; with Escherichia coli [20], 12 µg/mL (≈ 24.8 µM). Besides, the Ratio is reported as above 32 in the data set on Escherichia coli [2]; 15 with Bacillus spizizenii [5]; above 128 with Escherichia coli [9]; 15 in the data set with Escherichia coli [11]; above 32 in the data set on Escherichia coli [14]; above 32 with Escherichia coli [19]. The results for the IC50 (with Escherichia coli [3] (setting [25]); in [7]; in data set [8]) were 0.03 µM, “Not Active” and “Not Active”, respectively. In the data set on Bacillus spizizenii [22], the outcome was Active. The result in the data set with Escherichia coli [23] was inactive. Also, the LD50 at 96 h in data set [21] was found to be 280 mg/kg.

For the compound `O=C(O)c1cn(C2CC2)c2cc(N3CCNCC3)c(F)cc2c1=O` [CIPROFLOXACIN], the IC50 result was “Not Active” with Escherichia coli [3], 8.6 µM in data set [7] (read-out: IC50) and 1.3 µM in data set [8] (read-out: IC50). Further, in the data set on Bacillus spizizenii [24], the outcome was Active. The figures for the MIC (in the data set with Bacillus subtilis; in [10]; in the data set on Escherichia coli [15]) were 0.02 µg/mL (≈ 0.0604 µM), 0.094 µg/mL (≈ 0.284 µM) and below 0.005 µg/mL, respectively.
